Measured values published in patent publication US9975907B2, “Pyrimidinones as PI3K inhibitors” (Incyte Corporation, priority 2009, dated 2018).

Experiments:
PI3Kδ (p110δ/p85α) [1] = biological target: T1, PI3Kδ (p110δ/p85α) (Homo sapiens (Human), UniProt O00329); test: AlphaScreen Assay for PI3Kδ (Assay A1); format: biochemical; settings: column a, 20 μM ATP
Description: PI3-Kinase luminescent assay kit including lipid kinase substrate, D-myo-phosphatidylinositol 4,5-bisphosphate (PtdIns(4,5)P2)D (+)-sn-1,2-di-O-octanoylglyceryl, 3-O-phospho linked (PIP2), biotinylated I(1,3,4,5)P4, PI(3,4,5)P3 Detector Protein, was purchased from Echelon Biosciences (Salt Lake City, Utah). AlphaScreen™ GST Detection Kit including donor and acceptor beads was purchased from PerkinElmer Life Sciences (Waltham, Mass.). PI3Kδ (p110δ/p85α) was purchased from Millipore (Bedford, Mass.). ATP, MgCb, DTT, EDTA, HEPES and CHAPS were purchased from Sigma-Aldrich (St. Louis, Mo.).
AlphaScreen™ Assay for PI3Kδ
The kinase reaction was conducted in 384-well REMP plate from Thermo Fisher Scientific in a final volume of 40 μL. Inhibitors were first diluted serially in DMSO and added to the plate wells before the addition of other reaction components. The final concentration of DMSO in the assay was 2%. The PI3K assays were carried out at room temperature in 50 mM HEPES, pH 7.4, 5 mM MgCl2, 50 mM NaCl, 5 mM DTT and CHAPS 0.04%. Reactions were initiated by the addition of ATP, the final reaction mixture consisted of 20 μM PIP2, 20 μM ATP, 1.2 nM PI3Kδ were incubated for 20 min. 10 μL of reaction mixture was then transferred to 5 μL 50 nM biotinylated I(1,3,4,5)P4 in quench buffer: 50 mM HEPES pH 7.4, 150 mM NaCl, 10 mM EDTA, 5 mM DTT, 0.1% Tween-20, followed with the addition of 10 μL AlphaScreen™ donor and acceptor beads suspended in quench buffer containing 25 nM PI(3,4,5)P3 detector protein. The final concentration of both donor and acceptor beads is […]. After plate sealing, the plate was incubated in a dark location at room temperature for 2 hours. The activity of the product was determined on Fusion-alpha microplate reader (Perkin-Elmer). IC50 determination was performed by fitting the curve of percent control activity versus the log of the inhibitor concentration using the GraphPad Prism 3.0 software.

[2] = tested on: purified B cells from human PBMC; test: B Cell Proliferation Assay; format: cell-based; settings: anti-human IgM stimulated, three days, [3H]-thymidine incorporation
Method: To acquire B cells, human PBMC were isolated from the peripheral blood of normal, drug free donors by standard density gradient centrifugation on Ficoll-Hypague (GE Healthcare, Piscataway, N.J.) and incubated with anti-CD19 microbeads (Miltenyi Biotech, Auburn, Calif.). The B cells were then purified by positive immunosorting using an autoMacs (Miltenyi Biotech) according to the manufacturer's instruction.
The purified B cells (2×10^5/well/200 μL) were cultured in 96-well ultra-low binding plates (Corning, Corning, N.Y.) in RPMI1640, 10% FBS and goat F(ab′)2 anti-human IgM (10 μg/ml) (Invitrogen, Carlsbad, Calif.), in the presence of different amount of test compounds, for three days. [^3H]-thymidine (1 μCi/well) (PerkinElmer, Boston, Mass.) in PBS was then added to the B cell cultures for an additional 12 hrs before the incorporated radioactivity was separated by filtration with water through GF/B filters (Packard Bioscience, Meriden, Conn.) and measured by liquid scintillation counting with a TopCount (Packard Bioscience). Compounds having and IC^50 value of 10 μM or less are considered active. See Table 2 for data related to compounds of the invention.

PI3Kδ (p110δ/p85α) [3] = biological target: T1, PI3Kδ (p110δ/p85α); test: PI3Kδ Scintillation Proximity Assay (Assay A3); format: biochemical; settings: column b, Assay A3 (SPA), 20 μM ATP
Summary of the method: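 Human p110δ/p85α (4 nM) with 20 μM diC8-PIP2 and 20 μM ATP plus [γ-33P]ATP, 210 min at room temperature in 20 mM MOPS pH 6.7, 10 mM MgCl2, 5 mM DTT, 0.03% CHAPS, 0.5% DMSO. Product captured on WGA SPA beads in EDTA quench; IC50 from percent-control versus log concentration fit.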

PI3Kδ = PI3Kδ (Homo sapiens (Human), UniProt O00329); test: PI3K Enzyme Assay A2 ([γ-33P]ATP filter plate), PI3Kδ; format: biochemical; settings: column a, Examples 15, 30 and 44 used Assay A2, 1000 μM ATP
Chain of PI3Kδ (O00329 whole entry, species assumed, canonical isoform): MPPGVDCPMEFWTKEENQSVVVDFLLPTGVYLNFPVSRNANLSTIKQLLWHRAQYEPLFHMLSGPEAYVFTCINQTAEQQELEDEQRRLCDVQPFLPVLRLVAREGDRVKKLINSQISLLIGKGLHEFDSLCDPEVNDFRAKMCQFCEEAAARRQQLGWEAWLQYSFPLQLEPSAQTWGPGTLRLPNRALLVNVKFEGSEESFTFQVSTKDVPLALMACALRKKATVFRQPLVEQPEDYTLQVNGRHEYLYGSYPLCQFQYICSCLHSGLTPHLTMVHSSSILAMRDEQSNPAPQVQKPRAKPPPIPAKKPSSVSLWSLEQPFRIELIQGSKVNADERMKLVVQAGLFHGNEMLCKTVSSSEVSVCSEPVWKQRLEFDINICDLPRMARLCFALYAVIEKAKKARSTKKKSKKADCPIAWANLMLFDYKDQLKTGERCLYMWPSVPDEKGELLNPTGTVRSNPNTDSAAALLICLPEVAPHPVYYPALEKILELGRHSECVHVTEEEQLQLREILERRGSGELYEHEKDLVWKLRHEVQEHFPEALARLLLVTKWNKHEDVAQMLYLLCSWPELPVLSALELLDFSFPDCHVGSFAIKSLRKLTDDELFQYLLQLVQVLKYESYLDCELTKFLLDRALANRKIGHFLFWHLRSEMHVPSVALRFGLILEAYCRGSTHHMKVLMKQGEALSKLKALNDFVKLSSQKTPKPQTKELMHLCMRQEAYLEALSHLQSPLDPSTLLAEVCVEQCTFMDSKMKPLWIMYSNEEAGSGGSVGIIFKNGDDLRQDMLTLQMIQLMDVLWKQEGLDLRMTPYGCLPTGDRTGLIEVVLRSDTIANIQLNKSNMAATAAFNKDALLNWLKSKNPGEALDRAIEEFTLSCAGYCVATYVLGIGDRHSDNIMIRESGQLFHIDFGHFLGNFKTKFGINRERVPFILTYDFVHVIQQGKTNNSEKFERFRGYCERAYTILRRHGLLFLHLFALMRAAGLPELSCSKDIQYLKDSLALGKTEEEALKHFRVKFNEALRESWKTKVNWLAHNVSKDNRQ
Chain of PI3Kδ (P27986 whole entry partner, species assumed, canonical isoform): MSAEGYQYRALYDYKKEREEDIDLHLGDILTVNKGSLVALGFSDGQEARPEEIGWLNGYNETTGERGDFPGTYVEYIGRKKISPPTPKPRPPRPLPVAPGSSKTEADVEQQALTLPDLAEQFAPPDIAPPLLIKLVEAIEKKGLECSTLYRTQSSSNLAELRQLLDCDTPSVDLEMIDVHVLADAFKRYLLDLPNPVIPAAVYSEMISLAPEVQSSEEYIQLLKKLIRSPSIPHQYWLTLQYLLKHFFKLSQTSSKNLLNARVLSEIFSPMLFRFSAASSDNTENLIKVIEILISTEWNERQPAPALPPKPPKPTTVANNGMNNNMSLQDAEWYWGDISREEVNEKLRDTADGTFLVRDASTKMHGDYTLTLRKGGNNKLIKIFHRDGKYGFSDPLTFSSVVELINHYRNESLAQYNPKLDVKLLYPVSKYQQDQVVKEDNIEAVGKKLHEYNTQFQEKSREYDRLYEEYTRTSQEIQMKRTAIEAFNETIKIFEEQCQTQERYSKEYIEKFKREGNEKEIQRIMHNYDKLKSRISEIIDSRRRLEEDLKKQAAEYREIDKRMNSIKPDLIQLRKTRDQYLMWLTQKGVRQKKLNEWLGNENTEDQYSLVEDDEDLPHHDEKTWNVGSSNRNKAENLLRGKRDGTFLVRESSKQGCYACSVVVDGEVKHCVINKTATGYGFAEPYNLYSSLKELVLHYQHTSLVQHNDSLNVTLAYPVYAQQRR
Method: Materials: Lipid kinase substrate, phosphoinositol-4,5-bisphosphate (PIP2), was purchased from Echelon Biosciences (Salt Lake City, Utah). PI3K isoforms α, β, δ and γ were purchased from Millipore (Bedford, Mass.). ATP, MgCh, DTT, EDTA, MOPS and CHAPS were purchased from Sigma-Aldrich (St. Louis, Mo.). The kinase reaction was conducted in clear-bottom 96-well plate from Thermo Fisher Scientific in a final volume of 24 μL. Inhibitors were first diluted serially in DMSO and added to the plate wells before the addition of other reaction components. The final concentration of DMSO in the assay was 0.5%. The PI3K assays were carried out at room temperature in 20 mM MOPS, pH 6.7, 10 mM MgCl2, 5 mM DTT and CHAPS 0.03%. The reaction mixture was prepared containing 50 μM PIP2, kinase and varying concentration of inhibitors. Reactions were initiated by the addition of ATP containing 2.2 μCi [γ-^33P]ATP to a final concentration of 1000 μM. […] Reactions were incubated for 180 min and terminated by the addition of 100 μL of 1 M potassium phosphate pH 8.0, 30 mM EDTA quench buffer. […] After the plate sealing, the radioactivity of the product was determined by scintillation counting on Topcount (Perkin-Elmer). […]

[4] = tested on: Pfeiffer cell line (diffuse large B cell lymphoma); test: Pfeiffer Cell Proliferation Assay; format: cell-based; settings: Homo sapiens, Pfeiffer, 3-4 days, [3H]-thymidine incorporation
Method: Pfeiffer cell line (diffuse large B cell lymphoma) was purchased from ATCC (Manassas, Va.) and maintained in the culture medium recommended (RPMI and 10% FBS). To measure the anti-proliferation activity of the PI3Kδ submittals, the Pfeiffer cells were plated with the culture medium (2×10^3 cells/well/per 200 μl) into 96-well ultra-low binding plates (Corning, Corning, N.Y.), in the presence or absence of a concentration range of test compounds. After 3-4 days, [^3H]-thymidine (1 μCi/well) (PerkinElmer, Boston, Mass.) in PBS was then added to the cell culture for an additional 12 hrs before the incorporated radioactivity was separated by filtration with water through GF/B filters (Packard Bioscience, Meriden, Conn.) and measured by liquid scintillation counting with a TopCount (Packard Bioscience). See Table 3 for data related to compounds of the invention.

T1 sequence (O00329 whole entry, species assumed): as the sequence (O00329 whole entry, species assumed, canonical isoform) above
T1 sequence (P27986 whole entry partner, species assumed): as the sequence (P27986 whole entry partner, species assumed, canonical isoform) above

| IC50 (PI3Kδ (p110δ/p85α) [1]) [nM] | IC50 (PI3Kδ (p110δ/p85α) [3]) [nM] | IC50 (PI3Kδ) [nM] | IC50 [4] [nM] | SMILES | IC50 [2] [nM] |
| --- | --- | --- | --- | --- | --- |
| < 50 | < 50 | – | – | Cc1csc2nc(C(C)Nc3ncnc4[nH]cnc34)c(-c3cc(F)cc(F)c3)c(=O)n12 (stereo not drawn) [Example 12, 6-(3,5-difluorophenyl)-3-methyl-7-[1-(9H-purin-6-ylamino)ethyl]-5H-[1,3]thiazolo[3,2-a]pyrimidin-5-one] | < 50 |
| – | – | < 50 | < 50 | Cc1csc2nc(C(C)Nc3ncnc4[nH]cnc34)c(-c3cc(F)cc(F)c3)c(=O)n12 (single isomer, unassigned) [Example 44, 6-(3,5-difluorophenyl)-3-methyl-7-[1-(9H-purin-6-ylamino)ethyl]-5H-[1,3]thiazolo[3,2-a]pyrimidin-5-one] | < 50 |
